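Five compound concentrations were applied to cells in 96-well plates for 48 hours; endpoints were derived by simple linear interpolation of the resulting dose-response curve. At the TGI there is no net growth.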

Common to all, as to assay: inhibition of tumour cell growth, NCI panel, 48 h
Test [1] has as its system ACHN renal.
In test [2] the test system is BT-549 breast.
Test [3] concerns CCRF-CEM leukemia.
The subject of test [4] is EKVX NSCLC.
Test [5] relates to HCT-116 colon.
Test [6] has as its system HOP-92 NSCLC.
Test [7] relates to LOX IMVI melanoma.
The subject of test [8] is MDA-MB-231 breast.
The test system of test [9] is NCI-H23 lung.
Test [10] has as its system NCI-H460 lung.
In test [11] the test system is NCI/ADR-RES ovarian.
In test [12] the test system is OVCAR-8 ovarian.
Test [13] has as its system RPMI-8226 leukemia.
Test [14] concerns SK-OV-3 ovarian.
Test [15] has as its system SN12C renal.
Test [16] deals with SNB-75 CNS.
Test [17] concerns U251 CNS.

As to `CC(C)(C)N1C(=O)c2ccccc2C1(O)C(F)(F)F` (stereo unspecified), the TGI in test [1], in test [2], in [3], in test [4], in [5] and in test [6] was more than 100 µM in each case. Further, the TGI in test [7], in test [8], in [9], in test [10], in test [11] and in test [12] was more than 100 µM throughout. In addition, the TGI in test [13], in test [14], in test [15], in [16] and in [17] was more than 100 µM each time.
Take `COc1ccc(C2=Nn3c(nc4sc(C)c(C)c4c3=O)SC2)cc1`: the TGI in [1], in [2], in [3], in test [4], in test [5] and in test [6] was more than 100 µM in each case. For the same molecule, the TGI in test [7], in [8], in test [9], in test [10], in [11] and in [12] was more than 100 µM in each case. The TGI in [13], in [14], in test [15], in test [16] and in [17] was more than 100 µM throughout.
Take `CCSC1=N/C(=C\c2ccco2)C(NN)=N1`: the TGI in test [1], in test [2], in test [3], in [4], in test [5] and in test [6] was more than 50 µM each time. In addition, the TGI in [7], in test [8], in test [9], in test [10], in test [11] and in [12] was more than 50 µM throughout. For the same molecule, the TGI in test [13], in test [14], in [15], in test [16] and in [17] was more than 50 µM in each case.

The values above are taken from PubChem BioAssay (NCI).
